{"source": "patent US20230218663A1", "about": "“COMPOSITIONS AND METHODS FOR TREATING A SARS-COV-2 INFECTION” (priority 2020, published 2023)", "key": {"SARS-CoV-2 [1]": {"system": "SARS-CoV-2", "format": "cell-based"}, "SARS-CoV-2 [2]": {"system": "SARS-CoV-2", "assay": "Viral load reduction assay in VeroE6 cells", "format": "cell-based", "description": "Viral load reduction assay was performed on VeroE6 and Caco2 cells, as described previously with modifications^41. Supernatant samples from the infected cells (0.1 MOI) were harvested at 48 hours post-infection (hpi) for qRT-PCR analysis of virus replication. Briefly, 100 μL of viral supernatant were lyzed with 400 μL of AVL buffer and then extracted for total RNA with the QIAamp viral RNA mini kit (Qiagen, Hilden, Germany). Real-time one-step qRT-PCR was used for quantitation of SARS-CoV-2 viral load using the QuantiNova Probe RT-PCR kit (Qiagen) with a LightCycler 480 Real-Time PCR System (Roche) as previously described^15. Each […] mixture contained 10 μL of 2×QuantiNova Probe RT-PCR Master Mix, 1.2 μL of RNase-free water, 0.2 μL of QuantiNova Probe RT-Mix, 1.6 μL each of 10 μM forward and reverse primer, 0.4 μL of 10 μM probe, and 5 μL of extracted RNA as the template. Reactions were incubated at 45° C. for 10 min for reverse transcription, 95° C. for 5 min for denaturation, followed by 45 cycles of 95° C. for 5 s and 55° C. for 30 s. Signal detection and measurement were taken in each cycle after the annealing step. The cycling profile ended with a cooling step at 40° C. for 30 s. The primers and probe sequences are against the RNA-dependent RNA polymerase/Helicase (RdRP/Hel) gene region of SARS-Cov-2 previously described^42.\nCell culture supernatants were collected at 48 hour-post-infection (hpi) for viral RNA extraction and quantitative reverse transcription-polymerase chain reaction (qRT-PCR) as previously described with modifications(13, 14). The primers and probe sequences were against the RNA-dependent RNA polymerase/Helicase (RdRP/Hel) gene region of SARS-CoV-2: forward primer: 5′-[…]-3′ (SEQ ID NO:6); reverse primer: 5′-[…]-3′(SEQ ID NO:7); specific probe: 5′-[…]-IABkFQ-3′(SEQ ID NO:8). The viral load reduction assay experiments were performed in triplicate and repeated twice for confirmation."}, "SARS-CoV-2 [3]": {"system": "SARS-CoV-2", "format": "cell-based", "details": "read-out: EC50 VeroE6"}, "[4]": {"assay": "Ex vivo everted gut sac model", "format": "in vitro ADME, rat", "description": "Ex vivo everted gut sac model was performed according to a modified method (10, 11). For the preparation of everted gut sac, small intestines were rapidly isolated from rats right after their sacrificing followed by being washed several times with 0.9% saline. Duodenum was segmented of the intestine (˜4 cm) in oxygenated medium [Krebs-Henseleit solution (pH 7.4, 1.25 mM NaHCO3, pH 7.4, 5.9 mM NaCl, 23.5 μM KCl, 60 μM MgSO4, 62.5 μM CaCl2, 60 μM KH2PO4, 550 μM glucose)], gently everted, washed, slid onto a glass rod and fastened with braided silk. Duodenum was clamped at one end and filled with an aliquot of 1 mL fresh oxygenated medium, and subsequently sealed with a second clamp, resulting an everted gut sac with approximately 3 cm in length using braided silk sutures.\nThe everted gut sacs (n=3 per group) were dialyzed in oxygenated medium supplemented with CBS (200 μM), CBS (200 μM)+1NAC (200 μM), CBS (200 μM)+3NAC (600 μM), CBS (200 μM)+10NAC (2 mM), respectively, at 37° C. Aliquots of 50 μL samples were withdrawn from the gut sacs at different time intervals (15, 30, 45, 60 min) and equal volume of oxygenated medium was supplemented in gut sacs immediately. The length and width of each intestinal segment was measured after the final sample was taken. Bismuth content transported into the gut sacs was measured by ICP-MS as mentioned above."}, "[5]": {"assay": "In vivo pharmacokinetics and biodistribution in SD rats", "design": "species or system Sprague Dawley rats", "description": "For the measurement of detailed pharmacokinetics profiles of the optimal NAC combination with CBS identified from the above mice study, rats received a minor surgery of cannulation one day prior to experiment, with a polythene tube (i.d.0.4 mm×o.d. 0.8 mm, Harvard Apparatus, USA) in the left jugular vein, followed by an overnight recovery and fasting. Two group of rats (n=5 per group) were orally administrated with 1-mL aliquot of CBS (150 mg/kg) or CBS (150 mg/kg)+10NAC (610 mg/kg). About 200 μL of rat blood were collected via the jugular vein cannula into a heparinized centrifuge tube at 0.17, 0.33, 0.5, 1, 2, 4, 6, 8, 12, 24-hour post drug administration for respective group. Rats were allowed for free access to food 12 h after drug administrations. All the rats were sacrificed 24-hour post dosing followed by cardiac perfusion with 200-mL saline to collect major organs including spleen, liver, lung, kidney and brain for further analyses. For the digestion of tissues, a modified protocol from US EPA 3050B (USEPA, 1996) was used. Briefly, approximate 0.2˜0.3 g of the respective rat organ samples was placed in 15 ml polypropylene tubes and digested with 1 mL of 69% HNO3 at 65° C. for 16 h, while 100 μL of rat blood was digested with equal volume of 69% HNO3 at 65° C. for 16 h. After being cooled down to room temperature, the samples were diluted to 1% nitric acid to the final volume of 3 mL for further use. To eliminate matrix effect, blood and organs were also collected from untreated rats and digested under identical condition serving as blank control. Standard solutions were prepared by diluting multielement calibration standard of bismuth in the respective blank control of organ and blood, respectively. The bismuth content in each organ or blood sample was then measured by ICP-MS and calculated according to the standard curve in respective blank control. Pharmacokinetic parameters including the peak concentration (Cmax), the area under the concentration-time curve (AUC), the time reaching Cmax (Tmax) were determined through noncompartmental analysis with Phoenix WinNonlin version 6.4 (Pharsight Corporation, Mountain View, Calif., USA)."}, "[6]": {"assay": "Chemical stability of bismuth drugs at different pH"}, "SARS-CoV-2 [7]": {"system": "SARS-CoV-2", "format": "cell-based", "remark": "listed apart in the source"}, "[8]": {"details": "oral, CBS 150 mg/kg, NAC 610 mg/kg, bismuth"}, "[9]": {"details": "oral, CBS 150 mg/kg, NAC 610 mg/kg, bismuth, listed as CBS"}}, "note": "Several values for one entry are separate records, joined by “and”; a condition that tells them apart may be missing. Identical values can stand only once. Like-named read-outs stand apart in the source and are kept apart here."}
{"substance": "Colloidal Bismuth Subcitrate [De-Nol]", "values": [{"measurement": "viral NP antigen-positive cells", "setting": "SARS-CoV-2 [1]", "value": 37.25, "unit": "%"}, {"measurement": "maximal viral load reduction in VeroE6 cell culture supernatant", "setting": "SARS-CoV-2 [2]", "value": "~4", "unit": "logs"}, {"measurement": "maximal viral load reduction in the VeroE6 cell lysate", "setting": "SARS-CoV-2 [2]", "value": "~2", "unit": "logs"}, {"measurement": "EC50", "setting": "SARS-CoV-2 [3]", "value": "4.6 ± 0.4", "unit": "µM"}, {"measurement": "cumulative permeated bismuth", "setting": "PBS iso-pH 1.2, in the presence of 10 mol eq. NAC", "value": 24.91, "unit": "ng/cm2"}, {"measurement": "cumulative permeated bismuth", "setting": "PBS iso-pH 1.2, without NAC", "value": 16.95, "unit": "ng/cm2"}, {"measurement": "cumulative bismuth permeated within 60 min", "setting": "[4]; CBS 200 μM with 1 mol eq. NAC", "value": 30.21, "unit": "ng/cm2"}, {"measurement": "cumulative bismuth permeated within 60 min", "setting": "[4]; CBS 200 μM with 3 mol eq. NAC", "value": 64.98, "unit": "ng/cm2"}, {"measurement": "cumulative bismuth permeated within 60 min", "setting": "[4]; CBS 200 μM with 10 mol eq. NAC", "value": 98.61, "unit": "ng/cm2"}, {"measurement": "cumulative bismuth permeated within 60 min", "setting": "[4]; CBS 200 μM, without NAC", "value": 14.68, "unit": "ng/cm2"}, {"measurement": "bismuth accumulation in kidney", "setting": "[5]; 24 hours after oral dose", "value": 6839.76, "unit": "ng per tissue"}, {"measurement": "bismuth accumulation in lung", "setting": "[5]; 24 hours after oral dose", "value": 552.15, "unit": "ng per tissue"}, {"measurement": "first peak value of blood bismuth level", "setting": "[5]; at around 0.5 h, single oral dose CBS 150 mg/kg", "value": 277.69, "unit": "µg/L"}, {"measurement": "AUC0→24 h (±SD)", "setting": "[5]; [8]", "value": "2324.20 (±759.76) h · μg/L"}, {"measurement": "Cmax (±SD)", "setting": "[5]; [8]", "value": 447.06, "unit": "ng/mL"}, {"measurement": "AUC0→12 h (±SD)", "setting": "[5]; [9]", "value": "1316 h · μg/L and 1316.94 (±474.00) h · μg/L"}, {"measurement": "Tmax (±SD)", "setting": "[5]; [9]", "value": "4 h and 2.53(±2.01) h"}, {"measurement": "bismuth found in the supernatant", "setting": "[6]; pH 1.2, after 1 hour, without NAC", "value": "less than 10%"}, {"measurement": "bismuth remaining in the supernatant", "setting": "[6]; pH 1.2, in the presence of 3 mol eq. NAC", "value": "approximately 100%"}, {"measurement": "bismuth remaining in the supernatant", "setting": "[6]; pH 1.2, in the presence of 10 mol eq. NAC", "value": "approximately 100%"}, {"measurement": "hydrolysis at pH 9.2 in the presence of NAC", "setting": "[6]; pH 9.2", "value": "prevent hydrolysis"}, {"measurement": "effect on virus replication, drug maintained after virus entry (post-entry)", "setting": "SARS-CoV-2 [7]", "value": "functioned at post-entry stages"}, {"measurement": "bismuth intestinal permeation within 60 min", "setting": "Caco-2 cell monolayer", "value": "moderately elevated"}]}
